± gives the standard deviation of the averaged measurements.
What was measured:
Details in all cases: 72 h
Calu-3 [1] = test: relative viability EC50 (midpoint between 100% and the lowest measured viability); higher = less toxic
HepG2 [2] = test: as above
Vero E6 [3] = test: as above
U2OS [4] = test: as above
Caco-2 [5] = test: as above
Calu-3 [6] = test: cell viability relative to DMSO; higher = less toxic
HepG2 [7] = test: as above
Vero E6 [8] = test: as above
U2OS [9] = test: as above
Caco-2 [10] = test: as above
Calu-3 [11] = test: drug sensitivity score (DSS) for viability; higher = more toxic; extreme values may be limits of the assay
HepG2 [12] = test: as above
Vero E6 [13] = test: as above
U2OS [14] = test: as above
Caco-2 [15] = test: as above

Row | SMILES | relative viability EC50 (Calu-3 [1]) [µM] | relative viability EC50 (HepG2 [2]) [µM] | relative viability EC50 (Vero E6 [3]) [µM] | relative viability EC50 (U2OS [4]) [µM] | relative viability EC50 (Caco-2 [5]) [µM] | cell viability (Calu-3 [6]; 1 nM) [%] | cell viability (Calu-3 [6]; 10 nM) [%] | cell viability (Calu-3 [6]; 100 nM) [%] | cell viability (Calu-3 [6]; 1000 nM) [%] | cell viability (Calu-3 [6]; 10000 nM) [%] | cell viability (HepG2 [7]; 1 nM) [%] | cell viability (HepG2 [7]; 10 nM) [%] | cell viability (HepG2 [7]; 100 nM) [%] | cell viability (HepG2 [7]; 1000 nM) [%] | cell viability (HepG2 [7]; 10000 nM) [%] | cell viability (Vero E6 [8]; 1 nM) [%] | cell viability (Vero E6 [8]; 10 nM) [%] | cell viability (Vero E6 [8]; 100 nM) [%] | cell viability (Vero E6 [8]; 1000 nM) [%] | cell viability (Vero E6 [8]; 10000 nM) [%] | cell viability (U2OS [9]; 1 nM) [%] | cell viability (U2OS [9]; 10 nM) [%] | cell viability (U2OS [9]; 100 nM) [%] | cell viability (U2OS [9]; 1000 nM) [%] | cell viability (U2OS [9]; 10000 nM) [%] | cell viability (Caco-2 [10]; 1 nM) [%] | cell viability (Caco-2 [10]; 10 nM) [%] | cell viability (Caco-2 [10]; 100 nM) [%] | cell viability (Caco-2 [10]; 1000 nM) [%] | cell viability (Caco-2 [10]; 10000 nM) [%] | drug sensitivity score (Calu-3 [11]) | drug sensitivity score (HepG2 [12]) | drug sensitivity score (Vero E6 [13]) | drug sensitivity score (U2OS [14]) | drug sensitivity score (Caco-2 [15])
1 | Cc1nc2n(c(=O)c1CCN1CCC(c3noc4cc(F)ccc34)CC1)CCCC2O (stereo not given) [paliperidone] | > 10 | > 10 | > 10 | > 10 | > 10 | 104 | 104 | 93.2 | 100 | 102 | 107 | 104 | 108 | 95 | 100 | 113 | 106 | 109 | 103 | 92.4 | 99.5 | 103 | 97 | 101 | 99.9 | 93.6 | 106 | 90.7 | 104 | 118 | 0 | 0 | 0 | 0 | 0
2 | NCCCCCNCC12CC3CC(CC(C3)C1)C2 [IEM1754] | > 10 | > 10 | > 10 | > 10 | > 10 | 108 | 106 | 91 | 97.8 | 82.1 | 106 | 89.3 | 98.1 | 97.8 | 97.9 | 98.6 | 98.6 | 94.7 | 97.3 | 102 | 98.6 | 106 | 100 | 100 | 99 | 104 | 97.4 | 101 | 104 | 102 | 0.7 | 0 | 0 | 0 | 0
3 | COc1ccc2[nH]c([S+]([O-])Cc3ncc(C)c(OC)c3C)nc2c1 (stereo not given) [omeprazole-magnesium] | > 10 | > 10 | > 10 | > 10 | > 10 | 93.3 | 104 | 98.7 | 95.5 | 98.9 | 87.7 | 98.4 | 86.3 | 99.7 | 95.1 | 102 | 105 | 96.2 | 96.3 | 110 | 96.6 | 97.3 | 102 | 94.3 | 96 | 90.7 | 72.4 | 100 | 97.4 | 107 | 0 | 0 | 0 | 0 | 0
4 | O=C1NCCN1c1ncc([N+](=O)[O-])s1 [niridazole] | > 10 | > 10 | > 10 | > 10 | > 10 | 99.6 | 107 | 96.6 | 88 | 103 | 105 | 98.8 | 105 | 106 | 97.8 | 102 | 104 | 108 | 115 | 85.5 | 97.1 | 98.7 | 99.3 | 94.8 | 99.8 | 105 | 80.1 | 93.2 | 87.8 | 102 | 0 | 0 | 0.1 | 0 | 0
5 | N[C@@H](C(=O)O)c1ccc(C(=O)O)c(O)c1 (racemic) [4-carboxy-3-hydroxyphenylglycine-(RS)] | > 10 | > 10 | > 10 | > 10 | > 10 | 94.7 ± 5.6 | 91.5 ± 6.3 | 95.95 ± 0.35 | 94.5 ± 1.1 | 99.5 ± 2 | 99.7 ± 6.4 | 113 ± 12 | 104 ± 6.9 | 107 ± 4 | 98.7 ± 16 | 101.5 ± 0.78 | 98.35 ± 0.49 | 97.35 ± 0.92 | 102 ± 5.4 | 105 ± 12 | 97.1 ± 3 | 99.4 ± 2.1 | 97.8 ± 3.1 | 98.7 ± 4.6 | 105 ± 1.8 | 98.6 | 97.4 | 92.6 | 110 | 103 | 0 | 0 | 0 | 0 | 0
6 | COc1ccccc1N1CCN(CCN2C(=O)c3ccccc3C(C)(C)C2=O)CC1 [ARC-239] | > 10 | > 10 | > 10 | > 10 | > 10 | 105 | 104 | 100 | 102 | 95 | 107 | 95 | 106 | 102 | 97.3 | 104 | 95.2 | 102 | 102 | 103 | 96.8 | 95.3 | 97.9 | 101 | 95.9 | 102 | 101 | 91.3 | 98.2 | 92.6 | 0 | 0 | 0 | 0 | 0
7 | CC(C)[C@H]1[C@@H]2CC[C@@H](C2)[C@@H]1N | > 10 | > 10 | > 10 | > 10 | > 10 | 102 | 99.7 | 98.6 | 96 | 104 | 89.5 | 95 | 93.6 | 97.4 | 90.1 | 89.6 | 99.3 | 88.5 | 95.3 | 108 | 103 | 102 | 98 | 93.6 | 92.1 | 96.8 | 98.9 | 106 | 100 | 83.9 | 0 | 0 | 0 | 0 | 0.3
8 | COc1ccccc1OCC(O)CN1CCN(CC(=O)Nc2c(C)cccc2C)CC1 (stereo not given) [ranolazine] | > 10 | > 10 | > 10 | > 10 | > 10 | 95 | 91.8 | 102 | 105 | 105 | 97.5 | 97.9 | 93 | 96.7 | 102 | 90.5 | 97.3 | 89.5 | 90.7 | 104 | 98.6 | 93.4 | 102 | 96.1 | 102 | 100 | 96.9 | 106 | 99.2 | 99.1 | 0 | 0 | 0 | 0 | 0
9 | CC(C)C[C@@H](N)C(=O)N[C@H]1C(=O)N[C@@H](CC(N)=O)C(=O)N[C@H]2C(=O)N[C@H]3C(=O)N[C@H](C(=O)N[C@H](C(=O)O)c4cc(O)cc(O)c4-c4cc3ccc4O)[C@H](O)c3ccc(c(Cl)c3)Oc3cc2cc(c3O[C@@H]2O[C@H](CO)[C@@H](O)[C@H](O)[C@H]2O[C@H]2C[C@](C)(N)[C@H](O)[C@H](C)O2)Oc2ccc(cc2Cl)[C@H]1O [norvancomycin] | > 10 | > 10 | > 10 | > 10 | > 10 | 102 | 100 | 104 | 97.9 | 91.9 | 102 | 95.8 | 97.3 | 86.9 | 97.7 | 109 | 94.8 | 102 | 97 | 104 | 100 | 104 | 96.6 | 102 | 102 | 91.9 | 93.8 | 104 | 95.7 | 98.5 | 0 | 0 | 0 | 0 | 0
10 | O=C(CCCCCCNC(=O)c1cnc(N(c2ccccc2)c2ccccc2)nc1)NO [ACY-1215] | 1.42 | 1.89 | 2.7 | 1.87 | 2.53 | 107 | 93.5 | 100 | 82 | 38.6 | 96.5 | 108 | 87.3 | 86 | 16.2 | 92.9 | 100 | 94.2 | 96.9 | 47.7 | 102 | 101 | 107 | 88.6 | 33.3 | 108 | 92.8 | 106 | 94.3 | 27.2 | 6 | 7 | 3.2 | 5.6 | 4.9
11 | CN(C)c1ccc(C(=O)NCCCCCCC(=O)NO)cc1 [M-344] | 0.581 | 0.504 | 1.14 | 0.891 | 1.56 | 101 | 93.7 | 77.2 | 55.3 | 13.6 | 106 | 92.8 | 80.2 | 37.9 | 0.3 | 97.5 | 101 | 92.1 | 56 | 0 | 99.2 | 94.6 | 93.9 | 47.2 | 1.1 | 101 | 99.4 | 103 | 75.6 | 1.5 | 11.8 | 14.4 | 10.6 | 11.7 | 9.2

Reference: the supplement of paper PMC13380429
